# Source: patent US20260035452A1 (THE UNIVERSITY OF BIRMINGHAM, priority 2022, published 2026)
# No end group written: not given here.
# Columns and labels:
# [1] = system: Human dermal blood endothelial cells (HDBEC); test: HDBEC stimulation (flow cytometry, IL-6 Elisa); format: cell-based; settings: 24 h
# Description: FIG. 10: Human dermal blood endothelial cells (HDBEC) were treated with: IL-17 vehicle (Ctrl), IL-17 or FM-0410 (100 ng/ml), alone or in combination with TNF-α (100 U/ml) for 24 h. Cells were washed, gated in their totality and singlet before the identification of IL-17Rs (RA and RC) (A, B), ICAM (C) and VCAM (D) expression. Histogram values (expressed as MIF) indicate the total positive cells (A-D). In (E) are shown phase-contrast micrographs of confluent monolayers of untreated or treated (as reported before) HDBEC. Total adhesion (expressed as INT/mm^2, F) and % of transmigration (G) are calculated with Image Pro programme (DataCell, Finchampstead). Inflammatory supernatants from all experimental conditions were assayed by Elisa for IL-6 (H) expressed in pg/ml. Data were presented as means±S.D. of n=3 healthy donors. Statistical analysis was conducted by one-way ANOVA followed by Bonferroni's for multiple comparisons. ^#P≤0.05, ^##P≤0.01, ^###P≤0.001, ^####P≤0.0001 vs Ctrl group; *P≤0.05 vs TNF-α+IL-17 group; ^∘P≤0.05, ^∘∘∘P≤0.001, ^∘∘∘∘P≤0.0001 vs TNF-α group.
# Human dermal blood endothelial cells (HDBEC): Primary human dermal blood endothelial cells (HDBECs) were purchased from PromoCell and cultured in the manufacturer's recommended endothelial cell growth medium MV (PromoCell, Heidelberg, Germany). HDBECs were seeded onto 12-well tissue culture plates after 4 passages at a seeding density yielding confluent monolayers. HDBEC monolayers were washed in endothelial cell growth medium MV warmed to 37° C. and stimulated with IL-17 or FM-0410 (100 ng/ml) alone or in a combination with TNF-α (100 U/ml) for 24 h at 37° C. Cells were stimulated for 24 h, before staining with IL-17Rs (RA or RC) or ICAM/VCAM adhesion receptors using a Flow cytometry assay. Supernatants were collected and measured to evaluate IL-6 or TNF-α levels.
# Flow Cytometry: HDBEC, collected after 24 h of treatment, were washed with PBS without Ca^2+ and Mg^2+ containing 25 mM lactose for 20 min at room temperature with occasional mixing. Cells were, then, incubated with FcR blocking agents (Miltenyi) in PBS without Ca^2+ and Mg^2+ containing lactose before staining cells with antibodies IL-17 Receptor A (1:100; clone 133617) and IL-17 Receptor C (1:100; clone 309822). Moreover, HDBEC cells were also stained with ICAM (BBIG-V3; 1:50, APC, BD Biosciences) and VCAM (3E2; 1:50, FITC, BD Biosciences). Protein expression was analysed by flow cytometry on a Dako CyAn (Beckman Coulter, High Wycombe, U.K.), and data were analysed using MRFIow and FlowJo software operation. The unspecific binding of antibodies was quantified by using corresponding isotype controls.
# Elisa assay: The levels of IL-6 at 24 h were measured using commercially available enzyme-linked immunosorbent assay kits (ELISA kit, R&D System, Milan, Italy) according to the manufacturer's instructions. Briefly, 100 μl of supernatants, diluted standards, quality controls, and dilution buffer (blank) were applied on a plate with the monoclonal antibody for 2 h. After washing, 100 μl of biotin-labeled antibody was added and incubation continued for 1 h. […] The addition of 100 μl of the substrate and stop solution represented the last steps before the reading of absorbance (measured at 450 nm) on a microplate reader. Antigen levels in the samples were determined using a standard curve and expressed as pg/ml.
# [2] = system: neutrophils; test: Transwell chemotaxis assay; format: cell-based, human
# Description: The cells migration after IL-17 (10-500 ng/ml), FM-0410 (10-500 ng/ml) or N-Formylmethionine-leucyl-phenylalanine (fmlp; 10^−6 M) treatment was quantified using CountBright™ Absolute Counting Beads. Data were presented as means±S.D. of n=3 healthy donors. Statistical analysis was conducted by one-way ANOVA followed by Bonferroni's for multiple comparisons. ^#P≤0.05, ^##P≤0.01, ^###P≤0.001, ^####P≤0.0001 vs Ctrl group; ^+P≤0.05 vs IL-17. Neutrophil isolation: Blood was taken according to local research ethics committee approval (QMERC2014/61). Informed consent was provided according to the Declaration of Helsinki. All blood samples were collected on the day of experiments from healthy donors and immediately used. Each condition has 3 biological replicates (3 different donors). Neutrophils were isolated using a double density histopaque gradient and hypotonic lysis as described previously. Transwell chemotaxis assay: Chemotaxis was assessed using a transwell assay. […] After 2 hours at 37° C., neutrophils were collected from the bottom wells and quantified by flow cytometry using CountBright™ Absolute Counting Beads (Thermofisher, Rugby, UK) as previously described.
# [3] = 100 ng/ml in combination with TNF-α (100 U/ml)
substance,measurement,setting,value
Ac-LEKILVSVGATAVTPIVHHVAC [FM-0410],ICAM expression,[1]; [3],upregulation
same,IL-17RA receptor expression,[1]; [3],No effects
same,IL-17RC receptor expression,[1]; [3],No effects
same,VCAM expression,[1]; [3],upregulation
same,IL-6 levels (marker of cell activation),[1]; peptide co-stimulation with TNF-α,upregulation
same,chemotactic activity compared to positive control fmlp (10^−6 M),[2]; 500 ng/ml,almost similar to positive control fmlp
same,chemotactic effect on neutrophils,"[2]; 10-500 ng/ml, vs Control group",concentration-dependent chemotactic effect
